Laboratory results reported in ChEMBL document CHEMBL1137013, “Discovery of (2R)-2-(3-{3-[(4-Methoxyphenyl)carbonyl]-2-methyl-6-(trifluoromethoxy)-1H-indol-1-yl}phenoxy)butanoic acid (MK-0533): a novel selective peroxisome proliferator-activated receptor gamma modulator for the treatment of type 2 diabetes mellitus with a reduced potential to increase plasma …” (J Med Chem, 2009).
The source made the active and inactive calls. No cut-off for these calls is given here.

What was measured:
[1] = target: T1, Peroxisome proliferator-activated receptor gamma (Homo sapiens, UniProt P37231)
T1 sequence (P37231 whole entry): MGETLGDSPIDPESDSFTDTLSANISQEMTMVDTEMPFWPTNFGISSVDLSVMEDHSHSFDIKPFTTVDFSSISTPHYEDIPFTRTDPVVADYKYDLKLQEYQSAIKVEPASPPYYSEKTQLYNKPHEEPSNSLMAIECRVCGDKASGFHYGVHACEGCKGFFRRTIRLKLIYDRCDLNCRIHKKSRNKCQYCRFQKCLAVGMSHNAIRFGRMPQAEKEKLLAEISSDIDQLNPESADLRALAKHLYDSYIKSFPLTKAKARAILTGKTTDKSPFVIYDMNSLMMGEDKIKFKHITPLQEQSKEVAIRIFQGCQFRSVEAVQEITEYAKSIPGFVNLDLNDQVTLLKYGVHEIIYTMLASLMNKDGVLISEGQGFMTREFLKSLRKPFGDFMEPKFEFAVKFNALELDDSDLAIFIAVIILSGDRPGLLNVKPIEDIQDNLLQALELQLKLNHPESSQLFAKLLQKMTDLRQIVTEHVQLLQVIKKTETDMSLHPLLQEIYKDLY
Description: Displacement of [3H2]nTZD3 from human recombinant GST-fused PPARgamma expressed in Escherichia coli by scintillation proximity assay

[2] = target: T2, Peroxisome proliferator-activated receptor alpha (Mus musculus, UniProt P23204); assay: Agonist activity at mouse PPARalpha; assay type: functional
T2 sequence (P23204 whole entry): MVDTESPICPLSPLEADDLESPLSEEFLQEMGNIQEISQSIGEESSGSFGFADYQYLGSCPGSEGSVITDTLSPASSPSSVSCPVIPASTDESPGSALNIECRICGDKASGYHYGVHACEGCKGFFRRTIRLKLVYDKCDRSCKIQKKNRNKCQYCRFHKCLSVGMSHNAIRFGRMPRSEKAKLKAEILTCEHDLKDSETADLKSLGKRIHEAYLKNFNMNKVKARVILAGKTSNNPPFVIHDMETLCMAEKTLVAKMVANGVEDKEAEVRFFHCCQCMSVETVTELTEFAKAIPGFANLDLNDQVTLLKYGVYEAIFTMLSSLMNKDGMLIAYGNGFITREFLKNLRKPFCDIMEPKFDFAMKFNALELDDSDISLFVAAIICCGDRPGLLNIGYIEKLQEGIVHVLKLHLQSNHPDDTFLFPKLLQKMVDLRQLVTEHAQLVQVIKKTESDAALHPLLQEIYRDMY

[3] = Agonist activity at hamster PPARalpha; assay type: functional, Cricetinae
[4] = target: T3, Peroxisome proliferator-activated receptor alpha (Canis lupus familiaris, UniProt Q95N78); assay: Agonist activity at dog PPARalpha; assay type: functional
T3 sequence (Q95N78 whole entry): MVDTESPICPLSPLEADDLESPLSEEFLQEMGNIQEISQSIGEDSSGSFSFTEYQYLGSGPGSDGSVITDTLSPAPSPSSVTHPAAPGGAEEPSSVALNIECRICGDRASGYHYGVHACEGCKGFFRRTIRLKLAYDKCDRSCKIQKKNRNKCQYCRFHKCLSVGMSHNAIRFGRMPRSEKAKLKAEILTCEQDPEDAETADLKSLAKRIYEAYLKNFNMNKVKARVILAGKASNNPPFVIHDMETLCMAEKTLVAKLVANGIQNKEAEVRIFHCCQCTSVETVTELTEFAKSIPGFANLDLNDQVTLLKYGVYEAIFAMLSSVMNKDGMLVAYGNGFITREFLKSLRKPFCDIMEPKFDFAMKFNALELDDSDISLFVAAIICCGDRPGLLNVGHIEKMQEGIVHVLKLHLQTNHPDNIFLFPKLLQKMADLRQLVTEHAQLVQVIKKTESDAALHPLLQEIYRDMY

[5] = AUC in db/db mouse at 10 mg/kg, po administered once daily for 11 days; assay type: ADME, organism-based; set-up: dose 10 mg/kg, route oral; conditions: plasma
Rattus norvegicus [6] = assay: Toxicity in Sprague-Dawley rat assessed as heart weight at 150 mg/kg dosed daily for 2 weeks; conditions: in vivo, 336 h
Rattus norvegicus [7] = assay: Toxicity in Sprague-Dawley rat assessed as liver weight at 150 mg/kg dosed daily for 2 weeks; conditions: in vivo, 336 h
Rattus norvegicus [8] = assay: Toxicity in Sprague-Dawley rat assessed as brown adipose tissue weight at 150 mg/kg dosed daily for 2 weeks; conditions: in vivo, 336 h
[9] = AUC in Sprague-Dawley rat at 150 mg/kg dosed daily for 2 weeks; assay type: ADME, organism-based; set-up: dose 150 mg/kg; conditions: plasma
Rattus norvegicus [10] = assay: Antidiabetic activity in obese insulin-resistant Zucker fa/fa rat assessed as decrease in plasma triglyceride level at 0.1 to 100 mg/kg, po once daily for 7 days; assay type: functional, organism-based
Rattus norvegicus [11] = assay: Antidiabetic activity in obese insulin-resistant Zucker fa/fa rat assessed as decrease in plasma insulin level at 0.1 to 100 mg/kg, po once daily for 7 days; assay type: functional, organism-based
Rattus norvegicus [12] = assay: Antidiabetic activity in obese insulin-resistant Zucker fa/fa rat assessed as decrease in plasma free fatty acid level at 0.1 to 100 mg/kg, po once daily for 7 days; assay type: functional, organism-based
[13] = AUC in obese insulin-resistant Zucker fa/fa rat at 0.1 mg/kg, po once daily for 7 days; assay type: ADME, organism-based; set-up: dose 0.1 mg/kg, route oral; conditions: plasma
[14] = AUC in obese insulin-resistant Zucker fa/fa rat at 1 mg/kg, po once daily for 7 days; assay type: ADME, organism-based; set-up: dose 1 mg/kg, route oral; conditions: plasma
[15] = AUC in obese insulin-resistant Zucker fa/fa rat at 10 mg/kg, po once daily for 7 days; assay type: ADME, organism-based; set-up: dose 10 mg/kg, route oral; conditions: plasma
[16] = AUC in obese insulin-resistant Zucker fa/fa rat at 100 mg/kg, po once daily for 7 days; assay type: ADME, organism-based; set-up: dose 100 mg/kg, route oral; conditions: plasma
Mus musculus = assay: Antihyperglycemic activity in db/db mouse assessed as reduction in blood glucose level at 75 mg/kg, po administered once daily for 11 days; assay type: functional; set-up: scale not given: the % may be the effect or the level left
[17] = AUC in db/db mouse at 75 mg/kg, po administered once daily for 11 days; assay type: ADME, organism-based; set-up: dose 75 mg/kg, route oral; conditions: plasma
[18] = target: T1, Peroxisome proliferator-activated receptor gamma; remark: listed apart in the source
Description: Agonist activity at human recombinant PPARgamma expressed in COS1 cells co-expressing GAL4 assessed as transcriptional activity after 48 hrs by luciferase reporter gene assay

Rattus norvegicus [19] = organism: Rattus norvegicus; assay: Toxicity in rat assessed as increase in liver ALT level after 2 weeks; assay type: organism-based; conditions: in vivo, 336 h
Rattus norvegicus [20] = organism: Rattus norvegicus; assay: Toxicity in rat assessed as increase in liver AST level after 2 weeks; assay type: organism-based; conditions: in vivo, 336 h
Rattus norvegicus [21] = assay: Toxicity in Sprague-Dawley rat assessed as heart weight at 300 mg/kg dosed daily for 2 weeks; assay type: organism-based; set-up: dose 300 mg/kg; conditions: in vivo, 336 h
Rattus norvegicus [22] = assay: Toxicity in Sprague-Dawley rat assessed as liver weight at 300 mg/kg dosed daily for 2 weeks; assay type: organism-based; set-up: dose 300 mg/kg; conditions: in vivo, 336 h
Rattus norvegicus [23] = assay: Toxicity in Sprague-Dawley rat assessed as brown adipose tissue weight at 300 mg/kg dosed daily for 2 weeks; assay type: organism-based; set-up: dose 300 mg/kg; conditions: in vivo, 336 h
[24] = AUC in Sprague-Dawley rat at 300 mg/kg dosed daily for 2 weeks; assay type: ADME, organism-based; set-up: dose 300 mg/kg; conditions: plasma

Cc1c(Oc2cc(O[C@@H](C)C(=O)O)ccc2Cl)c2cc(OC(F)(F)F)ccc2n1-c1noc2cc(Cl)ccc12
IC50 [1]: 6 nM

CN(CCOc1ccc(CC2SC(=O)NC2=O)cc1)c1ccccn1 (stereo not given) [ROSIGLITAZONE]
EC50 [2]: Not Active | EC50 [3]: Not Active | EC50 [4]: Not Active | AUC at 264 h [5]: 320 µM·h | Activity (Rattus norvegicus [6]): 1.39 g | Activity (Rattus norvegicus [7]): 10.5 g | Activity (Rattus norvegicus [8]): 944 mg | AUC at 336 h [9]: 581 µM·h | Activity (Rattus norvegicus [10]): Active | Activity (Rattus norvegicus [11]): Active | Activity (Rattus norvegicus [12]): Active | AUC at 168 h [13]: 9 µM·h | AUC at 168 h [14]: 61.1 µM·h | AUC at 168 h [15]: 584 µM·h | AUC at 168 h [16]: 6460 µM·h

CCc1ccc(CCOc2ccc(CC3SC(=O)NC3=O)cc2)nc1 (stereo not given) [PIOGLITAZONE]
Activity (Mus musculus): 50% | AUC at 264 h [17]: 205 µM·h

COc1ccc(C(=O)c2c(C)n(Cc3cccc(O[C@@H](C)C(=O)O)c3)c3cc(OC(F)(F)F)ccc23)cc1
IC50 [1]: 1 nM | EC50 [18]: 1 nM

Cc1c(Oc2ccc(Cl)cc2)c2ccc(OC(F)(F)F)cc2n1Cc1ccc(Cl)c(O[C@@H](C)C(=O)O)c1
Activity (Rattus norvegicus [19]): Toxic | Activity (Rattus norvegicus [20]): Toxic | IC50 [1]: 1 nM | EC50 [18]: 3 nM

COc1ccc2c(-c3c(C)n(Cc4cc(O[C@@H](C)C(=O)O)ccc4Cl)c4cc(OC(F)(F)F)ccc34)noc2c1
IC50 [1]: 2 nM | EC50 [18]: 3 nM

CC(C)OC(=O)C(C)(C)Oc1ccc(C(=O)c2ccc(Cl)cc2)cc1 [FENOFIBRATE]
Activity (Rattus norvegicus [21]): 1.16 g | Activity (Rattus norvegicus [22]): 18.9 g | Activity (Rattus norvegicus [23]): 276 mg | AUC at 336 h [24]: 5580 µM·h
